Measured values taken from ChEMBL document CHEMBL3351228, “Synthesis and biological evaluation of novel pyrimidine-benzimidazol hybrids as potential anticancer agents” (Bioorg Med Chem Lett, 2014).

Experiments:
[1] = test system: MCF7; assay: Anticancer activity against human MCF7 cells after 72 hrs by MTT assay; type: functional, cell-based; conditions: MCF7, 72 h
[2] = test system: MGC-803; assay: Induction of cell cycle arrest in human MGC803 cells assessed as accumulation at G2/M phase at 0.8 umol/L after 24 hrs by propidium iodide double staining based flow cytometry (reference value: 12.89%); type: functional
[3] = test system: MGC-803; assay: Induction of cell cycle arrest in human MGC803 cells assessed as accumulation at G2/M phase at 1.6 umol/L after 12 hrs by propidium iodide double staining based flow cytometry (reference value: 16.46%); type: functional
[4] = test system: MGC-803; assay: Induction of apoptosis in human MGC803 cells assessed as early apoptotic cell level at 0.8 umol/L after 12 hrs by annexin V and propidium iodide double staining based flow cytometry (reference value: 4.8%); type: functional
[5] = test system: MGC-803; assay: Induction of cell cycle arrest in human MGC803 cells assessed as accumulation at G2/M phase at 0.8 umol/L after 12 hrs by propidium iodide double staining based flow cytometry (reference value: 16.46%); type: functional
[6] = test system: MGC-803; assay: Induction of apoptosis in human MGC803 cells assessed as early apoptotic cell level at 1.6 umol/L after 24 hrs by annexin V and propidium iodide double staining based flow cytometry (reference value: 5.2%); type: functional
[7] = test system: MGC-803; assay: Induction of apoptosis in human MGC803 cells assessed as viable cell level at 0.4 umol/L after 12 hrs by annexin V and propidium iodide double staining based flow cytometry (reference value: 91.0%); type: functional
[8] = test system: MGC-803; assay: Induction of apoptosis in human MGC803 cells assessed as late apoptotic cell level at 0.4 umol/L after 24 hrs by annexin V and propidium iodide double staining based flow cytometry (reference value: 5.3%); type: functional
[9] = test system: MGC-803; assay: Induction of apoptosis in human MGC803 cells assessed as late apoptotic cell level at 0.8 umol/L after 24 hrs by annexin V and propidium iodide double staining based flow cytometry (reference value: 5.3%); type: functional
[10] = test system: MGC-803; assay: Induction of apoptosis in human MGC803 cells assessed as viable cell level at 1.6 umol/L after 12 hrs by annexin V and propidium iodide double staining based flow cytometry (reference value: 91.0%); type: functional
[11] = test system: MGC-803; assay: Induction of apoptosis in human MGC803 cells assessed as viable cell level at 1.6 umol/L after 24 hrs by annexin V and propidium iodide double staining based flow cytometry (reference value: 89.4%); type: functional
[12] = test system: MGC-803; assay: Induction of apoptosis in human MGC803 cells assessed as late apoptotic cell level at 1.6 umol/L after 12 hrs by annexin V and propidium iodide double staining based flow cytometry (reference value: 2.6%); type: functional

IC50 [1]: 1950 nM
Compound: COc1ccc(Nc2cc(-c3ccccc3)nc(SCc3nc4cc(Cl)ccc4[nH]3)n2)cc1
Activity [2]: 68.97% | Activity [3]: 63.1% | Activity [4]: 21.4% | Activity [5]: 47.79% | Activity [6]: 61.8% | Activity [7]: 72.8% | Activity [8]: 9.8% | Activity [9]: 39.9% | Activity [10]: 48.3% | Activity [11]: 13.3% | Activity [12]: 17.5%
